BindingDB's records for doi:10.1016/j.bmc.2008.11.020 (Astellas Pharma, 2008)

Tests used:
[1] = Antagonist activity at mouse CCR4 receptor expressed in mouse B300-19 cells assessed as CCL22-induced chemotaxis
[2] = Antagonist activity at human CCR4 receptor expressed in mouse B300-19 cells assessed as CCL22-induced chemotaxis

SMILES	IC50 [1]	IC50 [2]
COc1cc2nc(N3CCC(N4CCCC(O)C4)CC3)nc(Nc3ccc(Cl)cc3)c2cc1OC (stereo unspecified) [1'-{4-[(4-Chlorophenyl)amino]-6,7-dimethoxyquinazolin-2-yl}-1,4'-bipiperidin-3-ol]	430 nM	85 nM
COc1cc2nc(N3CCC(N4CCCCC4)CC3)nc(NC3CCCCCC3)c2cc1OC [N-cycloheptyl-6,7-dimethoxy-2-(4-(piperidin-1-yl)piperidin-1-yl)quinazolin-4-amine]	39 nM	140 nM
COc1cc2nc(N3CCC(N4CCCC(CO)C4)CC3)nc(Nc3ccc(Cl)cc3)c2cc1OC (stereo unspecified) [(1'-{4-[(4-Chlorophenyl)amino]-6,7-dimethoxyquinazolin-2-yl}-1,4'-bipiperidin-3-yl)methanol]	58 nM	23 nM
COc1cc2nc(N3CCC(N4CCCC(CO)C4)CC3)nc(NC3CCCCCC3)c2cc1OC (stereo unspecified) [{1'-[4-(Cycloheptylamino)-6,7-dimethoxyquinazolin-2-yl]-1,4'-bipiperidin-3-yl}methanol]	19 nM	100 nM
COc1cc2nc(N3CCC(N4CCCC(OC)C4)CC3)nc(Nc3ccc(Cl)cc3)c2cc1OC (stereo unspecified) [N-(4-chlorophenyl)-6,7-dimethoxy-2-(3-methoxy-1,4'-bipiperidin-1'-yl)quinazolin-4-amine]	420 nM	510 nM
COc1cc2nc(N3CCC(N4CCCC(CO)C4)CC3)nc(NCCc3ccc(Cl)cc3)c2cc1OC (stereo unspecified) [1'-(4-{[2-(4-Chlorophenyl)ethyl]amino}-6,7-dimethoxyquinazolin-2-yl)-1,40-bipiperidin-3-yl]methanol]	390 nM	–

Further lines, results first:

IC50 [1]	IC50 [2]	SMILES
140 nM	450 nM	COc1cc2nc(N3CCC(N4CCCC(CO)C4)CC3)nc(NCc3ccc(Cl)cc3)c2cc1OC (stereo unspecified) [(1'-{4-[(4-Chlorobenzyl)amino]-6,7-dimethoxyquinazolin-2-yl}-1,4'-bipiperidin-3-yl)methanol]
230 nM	64 nM	COCC1CCCN(C2CCN(c3nc(Nc4ccc(Cl)cc4)c4cc(OC)c(OC)cc4n3)CC2)C1 (stereo unspecified) [N-(4-Chlorophenyl)-6,7-dimethoxy-2-[3-(methoxymethyl)-1,4'-bipiperidin-1'-yl]quinazolin-4-amine]
–	620 nM	COc1cc2nc(N3CCC(N4CCOC(CO)C4)CC3)nc(Nc3ccc(Cl)cc3)c2cc1OC (stereo unspecified) [[4-(1-{4-[(4-Chlorophenyl)amino]-6,7-dimethoxyquinazolin-2-yl}piperidin-4-yl)morpholin-2-yl]methanol]
